Experimental data published in patent publication US20230212193A1, “CRYSTALLINE RET INHIBITOR” (Loxo Oncology, Inc., priority 2020, published 2023).
In brackets after ≈: the same amount, converted by molar mass. Blank lines part the entries; values can stand above or below the compound they belong to.

Legend:
Assay type in all cases: physicochemical
[1] = accelerated stability study of Form B (open dish, temperature/humidity; XRPD and HPLC); parameters: key to Crystal Form (XRPD vs unstressed time 0 sample): NC: No Change
Text: Physical and chemical stability of Form B is an important attribute not only with respect to ensuring dissolution and solubility, but also for API and dosage form drug development and manufacturing operations (drying, storage, shipping transfers, etc.). Not all crystalline forms have the needed stability to enable drug development. A crystal form that is stable with respect to both temperature and humidity is desired. In order to assess the stability of the crystal form of selpercatinib an accelerated stability study iss carried out. Samples of Form B are weighed into 20 mL scintillation vials and placed (open dish) into bell jars with saturated salt solutions in ovens at the specified temperatures and for the specified times in Table 4. The Form B is analyzed before and after the accelerated stability study and is collected on a Bruker D8 Advance XRPD, equipped with a CuKα source (wavelength = 1.54056 Å) and a Linxeye detector, and operating at 40 kV and 40 mA, with a 0.2 mm divergence slit. Each sample is scanned from 4° to 30° 2θ in 0.02° steps at a rate of 0.2 seconds per step. Assay and impurities relative to the starting material are assessed using an Agilent 1260 HPLC System with Diode Array Detector. Samples are prepared at appropriate concentrations in 50/50 0.1%TFA in water/0.1%TFA in ACN and evaluated using the following HPLC conditions: Column Zorbax Bonus-RP, 75 × 4.6 mm i.d., 3.5 micron, mobile phase A is 0.1% TFA in water, mobile phase B is 0.1% TFA in ACN, gradient is 95% A at time 0, 23% A at time 9.5-12.1 minutes, 5% A at time 13-16 minutes, 95% A at time 16.1-20 minutes with a flow rate of 1.5 mL/min, a column temperature of 30° C., UV detection wavelength of 210 nm, and injection volume of 3 µL.

[2] = equilibrium solubility in aqueous media and simulated fluids
Protocol: Solubility studies were completed on the crystal form of selpercatinib described herein. Aqueous media covering the physiological pH range and three simulated fluids were used in these studies. A sufficient quantity of solid compound to saturate the volume of solvent is weighed into a vessel with approximately 1 mL of the specified solvent. […] After equilibration, samples are transferred to centrifuge filters (Durapore PVDF, 0.22 µm pore size) and centrifuged for 3 min at 10,000 rpm, while maintaining 37° C. A 100 µL aliquot is then withdrawn from each sample and diluted with 900 µL of 50:50 acetonitrile:water. The pH of the filtrate is recorded using calibrated scientific pH equipment. The solution concentration of the compound is determined by HPLC using an Agilent Zorbax Bonus-RP 4.6 × 75 mm, 3.5 µm column under the following conditions:; temperature is 30° C.; injection volume is 4 µL; ultraviolet detection at 238 nm; flow rate is 1.5 mL/min; autosampler temperature is 25° C.; mobile phase A is 0.1% trifluoroacetic acid in water; and mobile phase B is 0.1% trifluoroacetic acid in acetonitrile. The HPLC gradient is as follows: 0 min -95% A, 5% B; 9.5 min - 23% A, 77% B; 12.1 min - 23% A, 77% B; 13 min - 5% A, 95% B; 16 min - 5% A, 95% B; 16.1 min - 95% A, 5% B; 20 min - 95% A, 5% B. The table below (Table 3) details the equilibrium solubility data and equilibrium pH, reported as a mean of duplicate sample preparations. The solid form of the residual solid from the centrifuge sample is verified by XRPD, as noted in Table 5.

[3] = solubility in organic solvents
[4] = hygroscopicity comparison of polymorphs; details: anhydrous polymorphs compared

Assay (%) in comparison to the unstressed (time 0) sample ([1]; 7 days, 40 °C, 11% RH): 99.2%
Crystal Form (XRPD vs unstressed time 0 sample) ([1]; 7 days, 40 °C, 11% RH): NC
Impurities (%) ([1]; 7 days, 40 °C, 11% RH): 0.10%
Assay (%) in comparison to the unstressed (time 0) sample ([1]; 7 days, 40 °C, 75% RH): 99.4%
Crystal Form (XRPD vs unstressed time 0 sample) ([1]; 7 days, 40 °C, 75% RH): NC
Impurities (%) ([1]; 7 days, 40 °C, 75% RH): 0.11%
Assay (%) in comparison to the unstressed (time 0) sample ([1]; 7 days, 50 °C, 30% RH): 99.4%
Crystal Form (XRPD vs unstressed time 0 sample) ([1]; 7 days, 50 °C, 30% RH): NC
Impurities (%) ([1]; 7 days, 50 °C, 30% RH): 0.09%
Assay (%) in comparison to the unstressed (time 0) sample ([1]; 7 days, 50 °C, 50% RH): 99.2%
Crystal Form (XRPD vs unstressed time 0 sample) ([1]; 7 days, 50 °C, 50% RH): NC
Impurities (%) ([1]; 7 days, 50 °C, 50% RH): 0.10%
Assay (%) in comparison to the unstressed (time 0) sample ([1]; 7 days, 70 °C, 11% RH): 100.7%
Crystal Form (XRPD vs unstressed time 0 sample) ([1]; 7 days, 70 °C, 11% RH): NC
Impurities (%) ([1]; 7 days, 70 °C, 11% RH): 0.09%
Assay (%) in comparison to the unstressed (time 0) sample ([1]; 7 days, 70 °C, 75% RH): 100.3%
Crystal Form (XRPD vs unstressed time 0 sample) ([1]; 7 days, 70 °C, 75% RH): NC
Impurities (%) ([1]; 7 days, 70 °C, 75% RH): 0.10%
Assay (%) in comparison to the unstressed (time 0) sample ([1]; 14 days, 40 °C, 11% RH): 99.9%
Crystal Form (XRPD vs unstressed time 0 sample) ([1]; 14 days, 40 °C, 11% RH): NC
Impurities (%) ([1]; 14 days, 40 °C, 11% RH): 0.09%
Assay (%) in comparison to the unstressed (time 0) sample ([1]; 14 days, 40 °C, 75% RH): 99.9%
Crystal Form (XRPD vs unstressed time 0 sample) ([1]; 14 days, 40 °C, 75% RH): NC
Impurities (%) ([1]; 14 days, 40 °C, 75% RH): 0.10%
Assay (%) in comparison to the unstressed (time 0) sample ([1]; 14 days, 50 °C, 30% RH): 100.5%
Crystal Form (XRPD vs unstressed time 0 sample) ([1]; 14 days, 50 °C, 30% RH): NC
Impurities (%) ([1]; 14 days, 50 °C, 30% RH): 0.09%
Assay (%) in comparison to the unstressed (time 0) sample ([1]; 14 days, 50 °C, 50% RH): 100.4%
Crystal Form (XRPD vs unstressed time 0 sample) ([1]; 14 days, 50 °C, 50% RH): NC
Impurities (%) ([1]; 14 days, 50 °C, 50% RH): 0.11%
Assay (%) in comparison to the unstressed (time 0) sample ([1]; 14 days, 70 °C, 11% RH): 99.3%
Crystal Form (XRPD vs unstressed time 0 sample) ([1]; 14 days, 70 °C, 11% RH): NC
Impurities (%) ([1]; 14 days, 70 °C, 11% RH): 0.10%
Assay (%) in comparison to the unstressed (time 0) sample ([1]; 14 days, 70 °C, 75% RH): 100.9%
Crystal Form (XRPD vs unstressed time 0 sample) ([1]; 14 days, 70 °C, 75% RH): NC
Impurities (%) ([1]; 14 days, 70 °C, 75% RH): 0.11%
stability under the testing conditions ([1]; accelerated stability study, conditions of Table 4): chemically and physically stable
Impurities (%) ([1]; time point 0 days, unstressed sample): 0.09%
Equilibrium pH ([2]; 0.01N HCl, 37° C., 24-hour equilibration): 3.634
Equilibrium pH ([2]; 0.01 N NaOH, 37° C., 24-hour equilibration): 9.985
Equilibrium pH ([2]; 0.1N HCl, 21.5° C. (ambient)): 1.297
Equilibrium pH ([2]; FaSSIF, 37° C., 24-hour equilibration): 6.445
Equilibrium pH ([2]; FeSSIF, 37° C., 24-hour equilibration): 4.928
Equilibrium pH ([2]; SGF (simulated gastric fluid), 37° C., 24-hour equilibration): 2.644
Equilibrium pH ([2]; Water, 37° C., 24-hour equilibration): 7.146
solubility at 24 h ([2]; aqueous buffer, thermodynamic from solid, 0.01 N NaOH, 37° C., 24-hour equilibration): 1.1 µg/mL (≈ 2.09 µM)
solubility ([2]; aqueous media, 37 °C, thermodynamic from solid, indicated by the aqueous solubility results, read-out: intrinsic solubility): ~1 µg/mL (≈ 1.9 µM)
solubility at 24 h ([2]; citrate/phosphate buffer pH 4.0, aqueous buffer, thermodynamic from solid, pH 4.0 Citrate/Phosphate, 37° C., 24-hour equilibration): 712 µg/mL (≈ 1350 µM)
solubility at 24 h ([2]; pH 1.297, simulated gastric fluid, thermodynamic from solid, 0.1N HCl, measured at 21.5° C. (ambient), 24-hour equilibration): ≥ 10000 µg/mL
solubility at 24 h ([2]; pH 2.644, thermodynamic from solid, SGF (simulated gastric fluid), 37° C., 24-hour equilibration, retained solids non-crystalline by XRPD): 1440 µg/mL (≈ 2740 µM)
solubility at 24 h ([2]; pH 3.634, simulated gastric fluid, thermodynamic from solid, 0.01N HCl, 37° C., 24-hour equilibration): 4770 µg/mL (≈ 9080 µM)
Equilibrium pH ([2]; pH 4.0 Citrate/Phosphate, 37° C., 24-hour equilibration): 4.134
Equilibrium pH ([2]; pH 4.5 Acetate (USP), 37° C., 24-hour equilibration): 4.496
solubility at 24 h ([2]; pH 4.5 acetate buffer (USP), aqueous buffer, thermodynamic from solid, pH 4.5 Acetate (USP), 37° C., 24-hour equilibration): 169 µg/mL (≈ 322 µM)
Equilibrium pH ([2]; pH 6.0 Phosphate (USP), 37° C., 24-hour equilibration): 6.027
solubility at 24 h ([2]; pH 6.0 phosphate buffer (USP), aqueous buffer, thermodynamic from solid, pH 6.0 Phosphate (USP), 37° C., 24-hour equilibration): 8.6 µg/mL (≈ 16.4 µM)
solubility at 24 h ([2]; pH 7.146, thermodynamic from solid, Water, 37° C., 24-hour equilibration): 3.6 µg/mL (≈ 6.85 µM)
Equilibrium pH ([2]; pH 7.5 Phosphate (USP), 37° C., 24-hour equilibration): 7.526
solubility at 24 h ([2]; pH 7.5 phosphate buffer (USP), aqueous buffer, thermodynamic from solid, pH 7.5 Phosphate (USP), 37° C., 24-hour equilibration): 2.2 µg/mL (≈ 4.19 µM)
solubility at 24 h ([2]; thermodynamic from solid, FaSSIF (fasted-state simulated intestinal fluid, pH 6.5), 37° C., 24-hour equilibration): 9.6 µg/mL (≈ 18.3 µM)
solubility at 24 h ([2]; thermodynamic from solid, FeSSIF (fed-state simulated intestinal fluid, pH 5.0), 37° C., 24-hour equilibration): 228 µg/mL (≈ 433 µM)
solubility in anisole [3]: almost no solubility
SMILES: COc1ccc(CN2C3CC2CN(c2ccc(-c4cc(OCC(C)(C)O)cn5ncc(C#N)c45)cn2)C3)cn1 [Form B, 6-(2-hydroxy-2-methylpropoxy)-4-(6-(6-((6-methoxypyridin-3-yl)methyl)-3,6-diazabicyclo[3.1.1]heptan-3-yl)pyridin-3-yl)pyrazolo[1,5-a]pyridine-3-carbonitrile]

solubility in many organic solvents, including MEK, acetone, and many alcohol based solvents ([3]; 25° C.): poor
solubility ([3]; dichloromethane, dimethylsulfoxide and THF, organic solvent or mixture, 25° C., called moderate solubility, read-out: solubility in dichloromethane (DCM), dimethylsulfoxide (DMSO) and THF): 3000 to 30000 µg/mL (≈ 5710 to 57100 µM)
hygroscopicity [4]: slightly more hygroscopic than Form B
SMILES: COc1ccc(CN2C3CC2CN(c2ccc(-c4cc(OCC(C)(C)O)cn5ncc(C#N)c45)cn2)C3)cn1 [Form A, 6-(2-hydroxy-2-methylpropoxy)-4-(6-(6-((6-methoxypyridin-3-yl)methyl)-3,6-diazabicyclo[3.1.1]heptan-3-yl)pyridin-3-yl)pyrazolo[1,5-a]pyridine-3-carbonitrile]
